# “And” between values parts separate entries of the source, which are not always exact repeats. Equal entries are not always repeated.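 How tested: cells in 96-well plates exposed to compound for 48 hours at five concentrations. Abbreviation: GI50, concentration required for 50% inhibition of growth. At the TGI there is no net growth.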
# Experiments:
# Assay in all cases: NCI-60 cell line screen, 48 h
# NCI-H522 lung = test system: NCI-H522 lung
# IGROV1 ovarian = test system: IGROV1 ovarian
# SNB-75 CNS = test system: SNB-75 CNS
# SK-MEL-5 melanoma = test system: SK-MEL-5 melanoma
# UACC-257 melanoma = test system: UACC-257 melanoma
# MCF7 breast = test system: MCF7 breast
# SK-OV-3 ovarian = test system: SK-OV-3 ovarian
# MDA-N = test system: MDA-N
# SR leukemia = test system: SR leukemia
# PC-3 prostate = test system: PC-3 prostate
# HS 578T breast = test system: HS 578T breast
Compound,TGI (NCI-H522 lung) [µM],TGI (IGROV1 ovarian) [µM],TGI (SNB-75 CNS) [µM],TGI (SK-MEL-5 melanoma) [µM],TGI (UACC-257 melanoma) [µM],TGI (MCF7 breast) [µM],TGI (SK-OV-3 ovarian) [µM],TGI (MDA-N) [µM],TGI (SR leukemia) [µM],TGI (PC-3 prostate) [µM],TGI (HS 578T breast) [µM],GI50 (NCI-H522 lung),GI50 (IGROV1 ovarian),GI50 (SNB-75 CNS)
N#Cc1sc2c(c1OC(=O)c1ccco1)c(=O)n(-c1ccccc1)c(=S)n2-c1ccccc1,64.4,> 10,84.5,33.7,> 100,> 100,> 100,47.1,> 10,> 100,> 100,,,
C[Si](C)(C)OC1(C#N)c2ccccc2CCCC12CCCC2 (configuration not stated),77.7,> 100,> 100,56.2,58.3,> 100,> 100,> 100,> 100,> 100,> 100,,,
N#Cc1c(/C=C/c2ccccc2)c2c([nH]c1=S)CCCCC2,> 100,> 100,> 100,> 100,> 100,> 100,> 100,> 100,> 100,> 100,> 100,,,
CCC[N+](C)(C)CCCNC(=O)c1c(O)c2ccccc2[nH]c1=O,> 100,> 100,> 100,54.8,> 100,> 100,> 100,> 100,> 100,> 100,> 100,,,
N=C1C=CC(=C(c2ccc(N)cc2)c2ccc(N)cc2)C=C1,12.8,31.5,11.5,9.5,18.1,13.2,36.2,30.3,> 64.9,12.4,8.18,,,
O=C(CSc1nc2ccc(I)cc2c(=O)n1Cc1ccccc1)Nc1ccccc1,90.6,> 100,12.2,> 100,,> 100,46.4,> 100,33.3,31.9,17,,,
CCOc1ccccc1N=NC1C(=O)N(C(=O)CC(=O)Nc2ccccc2C)N=C1C (configuration not stated),> 100,> 100,54.6,> 100,,> 100,56.1,> 100,> 100,> 100,31.5,,,
O=C1C(c2ccccc2)=C(c2ccccc2)C1(Cl)Cl,4.51,15.3,16.6,8.03,9.36,9.92,29.2,4.51,4.82,14.3,> 28.8,,,
COC(=O)C1=C(C)NC(C)=C(C(=O)OC)C1c1cccc(/[N+]([O-])=C/c2ccccc2)c1,30.2,> 100,> 100,> 100,40.5,34.3,> 100,31.6,62,> 100,> 100,,,
[N-]=[N+]=C(C(=O)CN1CCCC1=O)S(=O)(=O)c1ccccc1,> 100,> 100,> 100,> 100,> 100,> 100,,> 100,> 100,> 100,> 100,,,
NS(=O)(=O)c1ccc(-c2ccc([As](=O)(O)O)cc2)cc1,> 100,> 100,> 100,> 100,> 100,> 100,> 100,> 100,> 100,> 100,> 100,,,
CCOC(=O)c1ccc2nc3n(c2c1)C(c1c(F)cccc1F)SC3 (configuration not stated),,> 100,> 100,> 100,> 100,> 100,> 100,> 100,> 100,> 100,> 100,,,
COC(=O)/C1=C/C=C\C[C@@]2(C)CC(c3ccoc3)OC(=O)[C@@H]2CC[C@H]1C (some centres not stated),,> 25,> 25,> 25,> 25,> 25,> 25,> 25,> 25,> 25,> 25,,,
O=C(CC(=O)N1N=C(c2ccccc2)C(N=Nc2ccc(S(=O)(=O)CCOS(=O)(=O)O)cc2)C1=O)Nc1ccc(Cl)cc1 (configuration not stated),> 100,72.3,> 100,> 100,> 100,> 100,> 100,> 100,> 100,> 100,99.6,,,
Cc1cc2nc3c(C#N)c(C)c(CCCl)c(Cl)n3c2cc1C,> 100,3.93,4.63,8.82,5.02,8.64,> 56.6,6.12,5.81,12.4,> 29.6,,,
COC(=O)N[C@@H]1C[C@H]2CC[C@]1(O[Si](C(C)C)(C(C)C)C(C)C)C(=O)C2,24,32,41.9,> 100,38.4,> 100,46.5,83.4,> 100,33.9,31.5,,,
CC1(C)CCCCCC(O)C(O)CCC(C)(C)C1=O (configuration not stated),> 100,> 100,> 100,> 100,> 100,> 100,> 100,> 100,> 100,> 100,> 100,,,
Cc1cn(C2CC(O)C(Cn3nncc3Cn3nc(Br)c(=O)[nH]c3=O)O2)c(=O)[nH]c1=O (configuration not stated),> 100,> 100,,> 100,> 100,> 100,> 100,> 100,> 100,> 100,> 100,,,

Compound,TGI (NCI-H522 lung) [µM],TGI (IGROV1 ovarian) [µM],TGI (SNB-75 CNS) [µM],TGI (SK-MEL-5 melanoma) [µM],TGI (UACC-257 melanoma) [µM],TGI (MCF7 breast) [µM],TGI (SK-OV-3 ovarian) [µM],TGI (MDA-N) [µM],TGI (SR leukemia) [µM],TGI (PC-3 prostate) [µM],TGI (HS 578T breast) [µM],GI50 (NCI-H522 lung),GI50 (IGROV1 ovarian),GI50 (SNB-75 CNS)
NC(=Nc1ccccc1)N/N=C/c1c[nH]c2ccccc12,0.306,32.7,5.56,1.85,12.2,15,4.14,0.0405,> 50.1,12.1,2.17,,,
N#Cc1ccc(-c2ccc(Cl)cc2)n(C2OC(CO)C(O)C(O)C2O)c1=S (configuration not stated),> 100,> 100,> 100,> 100,> 100,> 100,,> 100,> 100,> 100,> 100,> 100 µM and 15.5 µM,> 100 µM and 28 µM,43.1 µM and 19.8 µM
CCCCCc1cc2cc3c(c(O)c2c(=O)[nH]1)C1(CCC3)C(=O)c2c(O)ccc(O)c2C1=O,> 100,> 100,> 100,> 100,> 100,> 100,,> 100,> 100,> 100,> 100,,,
COC(=O)NC(Cc1ccccc1)NC(=O)OC(C)(C)C (configuration not stated),> 100,> 100,> 100,> 100,> 100,> 100,> 100,> 100,> 100,> 100,> 100,,,
CCOP(=O)(OCC)/C(=C/n1c(=S)[nH]c2ccccc21)C(=O)OC,> 100,> 100,> 100,> 100,> 100,> 100,> 100,> 100,> 100,> 100,> 100,,,
O=C(CCCCCNC(=O)c1ccc(Cl)cc1)NO,15.2,25,30.8,13.9,14.5,> 100,41,10.8,53.7,9,> 100,,,
COC1C(O)C(C)OC(O[C@H]2CC[C@@]3(C)C(CC[C@@H]4[C@@H]3CC[C@]3(C)[C@@H](C(C)OC5OC(CO)C(O)C(O)C5O)CC[C@]43O)C2)C1O (some centres not stated),> 25,> 25,> 25,> 25,> 25,> 25,> 25,> 25,> 25,> 25,> 25,,,
CCOc1ccc2c(c1)C(/C(C(Cl)=C(Cl)Cl)=[N+](/[O-])OC(=O)c1ccccc1)=N2,> 100,,> 100,> 100,> 100,> 100,> 100,> 100,> 100,> 100,> 100,,,
N#CCCN(CCCCN(CCC#N)C(=O)Nc1ccccc1)C(=O)Nc1ccccc1,> 100,> 100,> 100,> 100,,> 100,> 100,> 100,> 100,> 100,> 100,,,
[N-]=[N+]=Nc1cc(=O)[nH]c2ccccc12,> 100,> 100,> 100,> 100,> 100,> 100,> 100,> 100,> 100,> 100,> 100,,,
COc1ccc(NC(=O)CSC(=O)c2ccccc2)c(SCCSSCCSc2cc(OC)ccc2NC(=O)CSC(=O)c2ccccc2)c1,> 100,> 100,> 100,> 100,> 100,> 100,> 100,> 100,> 100,> 100,> 100,,,
COCC(C#N)NC1CC(OC2CC(O)(C(=O)CO)Cc3c(O)c4c(c(O)c32)C(=O)c2c(OC)cccc2C4=O)OC(C)C1O (configuration not stated),0.193,0.582,0.373,0.154,0.368,0.836,10.6,0.349,0.15,1.2,1.32,,,
CCCCCCCCCCCC(=O)N(CCCCCCCCC)CC(O)C(O)C(OC1OC(CO)C(O)C(O)C1O)C(O)CO (configuration not stated),44.1,33.6,34.3,35,31.4,> 100,,38.4,42.4,39.2,> 100,,,
COc1cc(C(c2ccccc2)N2C(=O)CC[C@H]2C(=O)O)cc(OC)c1OC (some centres not stated),> 100,> 100,> 100,> 100,> 100,> 100,> 100,> 100,> 100,> 100,> 100,,,
N=c1ncn(C/C=C/c2ccccc2)c2nc[nH]c12,> 100,> 100,> 100,> 100,> 100,> 100,> 100,> 100,> 100,> 100,> 100,,,
CC1(C)CCC2=C(O1)c1ccccc1C(=Nc1ccc([N+](=O)[O-])cc1)C2=O,30.1,> 100,38.4,30.3,30.1,27.7,34.8,28.1,37.7,31.5,> 100,,,
c1ccc2c(c1)nnn2C1CCCCO1 (configuration not stated),> 100,> 100,> 100,> 100,> 100,> 100,> 100,> 100,> 100,> 100,> 100,,,

# Reference: PubChem BioAssay (NCI)
